Laboratory results reported in patent US20240067693A1, “POLYPEPTIDES AND USES THEREOF” (MEDIMMUNE LIMITED, priority 2020, published 2024).
Numbered stars: 1 amine (or outer) side, 2 acyl side, 3 side chain; on linkers, the order of the positions; unused ones are H or OH. Bridge positions count the residues as written; N and C are the ends. Square brackets hold non-standard residues; d marks the D form. Side chains are listed from the residue outwards. Peptide text beside a SMILES is read from it. * marks the point of attachment. C20 diacid = O=C(O)CCCCCCCCCCCCCCCCCCC(=O)*; C18 diacid = O=C(O)CCCCCCCCCCCCCCCCC(=O)*; γGlu = O=C(O)[C@H](CCC(=O)[*:2])N[*:1]; Hyp = O=C(O)[C@@H]1C[C@@H](O)CN1; αMeF = C[C@](N)(Cc1ccccc1)C(=O)O; Aib = CC(C)(N)C(=O)O

Columns and labels:
[1] = biological target: T1, human amylin receptor (calcitonin receptor co-expressed with receptor activity modifying protein, RAMP3) (hAMYR3) (Homo sapiens, UniProt O60896+P30988); assay: cAMP production in 1321N1 cells with stable recombinant expression of human amylin receptor (hAMYR3); format: cell-based; conditions: for Ratio (selectivity hAMYR vs hCTR, ratio of EC50 values at the two receptors): EC50 hCTR / EC50 hAMYR3; for EC50: cAMP, 1321N1 cells, assay buffer with 0.1% BSA, read-out: EC50 (pM) hAMYR3
T1 construct: expressed in transfected cells
T1 sequence (P30988 25-474): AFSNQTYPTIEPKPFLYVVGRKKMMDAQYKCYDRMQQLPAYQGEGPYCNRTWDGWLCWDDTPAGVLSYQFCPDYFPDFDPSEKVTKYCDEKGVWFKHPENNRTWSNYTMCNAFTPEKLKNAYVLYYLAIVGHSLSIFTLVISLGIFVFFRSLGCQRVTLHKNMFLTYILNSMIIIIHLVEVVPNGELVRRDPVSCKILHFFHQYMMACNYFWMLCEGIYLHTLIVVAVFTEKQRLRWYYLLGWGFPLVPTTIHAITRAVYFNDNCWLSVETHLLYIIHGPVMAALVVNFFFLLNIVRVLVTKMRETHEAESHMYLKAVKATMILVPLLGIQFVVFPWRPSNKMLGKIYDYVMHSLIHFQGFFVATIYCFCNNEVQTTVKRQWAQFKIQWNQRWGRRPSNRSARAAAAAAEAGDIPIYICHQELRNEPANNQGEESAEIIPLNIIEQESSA
T1 sequence (O60896 24-148 partner): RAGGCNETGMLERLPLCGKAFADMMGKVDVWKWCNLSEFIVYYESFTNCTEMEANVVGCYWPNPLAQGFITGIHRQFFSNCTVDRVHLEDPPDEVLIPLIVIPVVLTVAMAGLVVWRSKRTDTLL
Experimental: (§1) The functional activities of lipidated pramlintide analogue peptides, such as cAMP production, were tested in 1321N1 cell line with stable recombinant expression of human calcitonin receptor (hCTR) or human amylin receptor (calcitonin receptor co-expressed with receptor activity modifying protein, RAMP3) (hAMYR3) or HEK cells with stable recombinant expression of rat calcitonin receptor (rat CTR) or rat amylin receptor (calcitonin receptor co-expressed with receptor activity modifying protein, RAMP3) (Rat AMYR3).
(§2) Cryopreserved cell stock was thawed rapidly in a water-bath, suspended in assay buffer (0.1% BSA (Sigma # A3059) in HBSS (Sigma # H8264) with 25 mM HEPES, pH 7.4 and containing 0.5 mM IB MX (Sigma# 17018)) and spun at 240×g for 5 minutes. Cells were re-suspended in assay buffer at a batch-dependent optimized concentration (e.g. hCTR cells at 0.125×10^5 cells/mL, hAMYR3 cells at 0.125×10^5 cells/mL, rat CTR cells at 1x10^5 cells/mL, rat AMYR3 at 2×10^5 cells/mL).
(§3) The test peptide stock was prepared in DMSO and diluted in assay buffer to reach stated concentrations and transferred in duplicates into a 384-black shallow well microtitre assay plate (Corning # 3676). Cells were added to the assay plate, incubated at room temperature for 30 minutes and the cAMP level measured using cAMP dynamic 2 HTRF kit (Cisbio, Cat # 62AM4PEJ), following the two step protocol as per manufacturer's recommendations. The plates were read on an Envision (Perkin Elmer) using excitation wavelength of 320 nm and emission wavelengths of 620nm & 665 nm.
(§4) Data was transformed to % Delta F as described in the manufacturer's guidelines and analyzed as percent activation of maximal amylin or calcitonin effect by 4-parameter logistic fit to determine EC50 values. The selectivity of a peptide to hAMYR vs hCTR is defined as a ratio of EC50 values at the two receptors.

[2] = biological target: T2, human calcitonin receptor (hCTR) (Homo sapiens, UniProt P30988); assay: cAMP production in 1321N1 cells with stable recombinant expression of human calcitonin receptor (hCTR); format: cell-based; conditions: cAMP, 1321N1 cells, assay buffer with 0.1% BSA; read-out: EC50 (pM) hCTR
T2 construct: expressed in transfected cells
T2 sequence (P30988 25-474): T1 sequence (P30988 25-474)
Experimental: as §1, §2, §3, §4

| SMILES | Ratio (selectivity hAMYR vs hCTR, ratio of EC50 values at the two receptors) [1] | EC50 [1] | EC50 [2] |
| --- | --- | --- | --- |
| CC[C@H](C)[C@H](NC(=O)[C@H](C)NC(=O)[C@@H]1C[C@@H](O)CN1C(=O)[C@H](Cc1ccccc1)NC(=O)[C@H](CC(N)=O)NC(=O)C(C)(C)NC(=O)[C@H](CO)NC(=O)[C@H](CO)NC(=O)[C@H](Cc1c[nH]cn1)NC(=O)[C@@H](NC(=O)[C@H](CC(C)C)NC(=O)[C@H](Cc1ccccc1)NC(=O)[C@H](CC(N)=O)NC(=O)[C@H](C)NC(=O)[C@H](CC(C)C)NC(=O)[C@H](CCCNC(=N)N)NC(=O)[C@H](CCC(N)=O)NC(=O)[C@@H](NC(=O)[C@H](C)NC(=O)[C@@H]1CSSC[C@H](NC(=O)[C@@H](N)CCCCNC(=O)CC[C@H](NC(=O)CC[C@H](NC(=O)CCCCCCCCCCCCCCCCCCC(=O)O)C(=O)O)C(=O)O)C(=O)N[C@@H](CC(N)=O)C(=O)N[C@@H]([C@@H](C)O)C(=O)N[C@@H](C)C(=O)N[C@@H]([C@@H](C)O)C(=O)N1)[C@@H](C)O)C(C)C)C(=O)N[C@@H](CC(C)C)C(=O)N[C@@H](CO)C(=O)N1CCC[C@H]1C(=O)N[C@H](C(=O)N[C@@H](CC(N)=O)C(=O)N[C@H](C(=O)NCC(=O)N[C@@H](CO)C(=O)N[C@@H](CC(N)=O)C(=O)N[C@H](C(=O)N[C@@H](Cc1ccc(O)cc1)C(N)=O)[C@@H](C)O)C(C)C)[C@@H](C)O [Peptide 121, K(γE-γE-C20diacid)[CNTATC]ATQRLANFLVHSS(Aib)NF(Hyp)AILSPTNVGSNTY-amide] (H-K([γGlu-γGlu-C20 diacid])CNTATCATQRLANFLVHSS[Aib]NF[Hyp]AILSPTNVGSNTY-NH2; disulfide 2-7; N-terminus assumed) | 5 | 1330 pM | 6070 pM |
| CC[C@H](C)[C@H](NC(=O)[C@@H]1CCCN1C(=O)CNC(=O)[C@H](Cc1ccccc1)NC(=O)[C@H](CC(N)=O)NC(=O)[C@H](CC(N)=O)NC(=O)[C@H](CO)NC(=O)[C@H](CO)NC(=O)[C@H](Cc1c[nH]cn1)NC(=O)[C@@H](NC(=O)[C@H](CC(C)C)NC(=O)[C@H](Cc1ccccc1)NC(=O)[C@H](CC(N)=O)NC(=O)[C@H](C)NC(=O)[C@H](CC(C)C)NC(=O)[C@H](CCCNC(=N)N)NC(=O)[C@H](CCC(N)=O)NC(=O)[C@@H](NC(=O)[C@H](C)NC(=O)[C@@H]1CSSC[C@H](NC(=O)[C@@H](N)CCCCNC(=O)CC[C@H](NC(=O)CC[C@H](NC(=O)CCCCCCCCCCCCCCCCCCC(=O)O)C(=O)O)C(=O)O)C(=O)N[C@@H](CC(N)=O)C(=O)N[C@@H]([C@@H](C)O)C(=O)N[C@@H](C)C(=O)N[C@@H]([C@@H](C)O)C(=O)N1)[C@@H](C)O)C(C)C)C(=O)N[C@@H](CC(C)C)C(=O)N1CCC[C@H]1C(=O)N1CCC[C@H]1C(=O)N[C@H](C(=O)N[C@@H](CC(N)=O)C(=O)N[C@H](C(=O)NCC(=O)N[C@@H](CO)C(=O)N[C@@H](CCCNC(=N)N)C(=O)N[C@H](C(=O)N[C@@H](Cc1ccc(O)cc1)C(N)=O)[C@@H](C)O)C(C)C)[C@@H](C)O [Peptide 114] (H-K([γGlu-γGlu-C20 diacid])CNTATCATQRLANFLVHSSNNFGPILPPTNVGSRTY-NH2; disulfide 2-7 (inferred)) | 12 | – | – |
| CC[C@H](C)[C@H](NC(=O)[C@H](C)NC(=O)[C@@H]1CCCN1C(=O)[C@H](Cc1ccccc1)NC(=O)[C@H](CC(N)=O)NC(=O)[C@@H]1CCCN1C(=O)[C@H](CO)NC(=O)[C@H](CO)NC(=O)[C@H](Cc1c[nH]cn1)NC(=O)[C@@H](NC(=O)[C@H](CC(C)C)NC(=O)[C@H](Cc1c[nH]c2ccccc12)NC(=O)[C@H](CC(N)=O)NC(=O)[C@H](C)NC(=O)[C@H](CC(C)C)NC(=O)[C@H](CCCNC(=N)N)NC(=O)[C@H](CCC(N)=O)NC(=O)[C@@H](NC(=O)[C@H](C)NC(=O)[C@@H]1CSSC[C@H](NC(=O)[C@@H](N)CCCCNC(=O)CC[C@H](NC(=O)CC[C@H](NC(=O)CCCCCCCCCCCCCCCCCCC(=O)O)C(=O)O)C(=O)O)C(=O)N[C@@H](CC(N)=O)C(=O)N[C@@H](C)C(=O)N[C@@H](C)C(=O)N[C@@H]([C@@H](C)O)C(=O)N1)[C@@H](C)O)C(C)C)C(=O)N[C@@H](CC(C)C)C(=O)N[C@@H](CO)C(=O)N1CCC[C@H]1C(=O)N[C@H](C(=O)N[C@@H](CC(N)=O)C(=O)N[C@H](C(=O)NCC(=O)N[C@@H](CO)C(=O)N[C@@H](CC(N)=O)C(=O)N[C@H](C(=O)N[C@@H](Cc1ccc(O)cc1)C(N)=O)[C@@H](C)O)C(C)C)[C@@H](C)O [Peptide 120] (H-K([γGlu-γGlu-C20 diacid])CNAATCATQRLANWLVHSSPNFPAILSPTNVGSNTY-NH2; disulfide 2-7 (inferred)) | 6 | – | – |
| CC[C@H](C)[C@H](NC(=O)[C@H](C)NC(=O)[C@@H]1CCCN1C(=O)[C@H](Cc1ccccc1)NC(=O)[C@H](CC(N)=O)NC(=O)[C@@H]1CCCN1C(=O)[C@H](CO)NC(=O)[C@H](CO)NC(=O)[C@H](Cc1c[nH]cn1)NC(=O)[C@@H](NC(=O)[C@H](CC(C)C)NC(=O)[C@H](Cc1ccccc1)NC(=O)[C@H](CC(N)=O)NC(=O)[C@H](C)NC(=O)[C@H](CC(C)C)NC(=O)[C@H](CCCNC(=N)N)NC(=O)[C@H](CCC(N)=O)NC(=O)[C@@H](NC(=O)[C@H](C)NC(=O)[C@@H]1CSSC[C@H](NC(=O)[C@@H](N)CCCCNC(=O)CC[C@H](NC(=O)CC[C@H](NC(=O)CCCCCCCCCCCCCCCCCCC(=O)O)C(=O)O)C(=O)O)C(=O)N[C@@H](CC(N)=O)C(=O)N[C@@H]([C@@H](C)O)C(=O)N[C@@H](C)C(=O)N[C@@H]([C@@H](C)O)C(=O)N1)[C@@H](C)O)C(C)C)C(=O)N[C@@H](CC(C)C)C(=O)N[C@@H](CO)C(=O)N1CCC[C@H]1C(=O)N[C@H](C(=O)N[C@@H](CC(N)=O)C(=O)N[C@H](C(=O)NCC(=O)N[C@@H](CO)C(=O)N[C@@H](CC(N)=O)C(=O)N[C@H](C(=O)N[C@@H](Cc1ccc(O)cc1)C(N)=O)[C@@H](C)O)C(C)C)[C@@H](C)O [Peptide 115] (H-K([γGlu-γGlu-C20 diacid])CNTATCATQRLANFLVHSSPNFPAILSPTNVGSNTY-NH2; disulfide 2-7 (inferred)) | 11 | – | – |
| CC[C@H](C)[C@H](NC(=O)[C@@H]1CCCN1C(=O)CNC(=O)[C@](C)(Cc1ccccc1)NC(=O)[C@H](CC(N)=O)NC(=O)[C@H](CC(N)=O)NC(=O)[C@H](CO)NC(=O)[C@H](CO)NC(=O)[C@H](Cc1c[nH]cn1)NC(=O)[C@H](CCCNC(=N)N)NC(=O)[C@H](CC(C)C)NC(=O)[C@H](Cc1ccccc1)NC(=O)[C@H](CC(N)=O)NC(=O)[C@H](C)NC(=O)[C@H](CC(C)C)NC(=O)[C@H](CCCNC(=N)N)NC(=O)[C@H](CCC(N)=O)NC(=O)[C@@H](NC(=O)[C@H](C)NC(=O)[C@@H]1CSSC[C@H](NC(=O)[C@@H](N)CCCCNC(=O)CC[C@H](NC(=O)CCCCCCCCCCCCCCCCC(=O)O)C(=O)O)C(=O)N[C@@H](CC(N)=O)C(=O)N[C@@H]([C@@H](C)O)C(=O)N[C@@H](C)C(=O)N[C@@H]([C@@H](C)O)C(=O)N1)[C@@H](C)O)C(=O)N[C@@H](CC(C)C)C(=O)N1CCC[C@H]1C(=O)N1CCC[C@H]1C(=O)N[C@H](C(=O)N[C@@H](CCC(=O)O)C(=O)N[C@H](C(=O)NCC(=O)N[C@@H](CO)C(=O)N[C@@H](CC(N)=O)C(=O)N[C@H](C(=O)N[C@@H](Cc1ccc(O)cc1)C(N)=O)[C@@H](C)O)C(C)C)[C@@H](C)O [Peptide 16, K(γE-C18diacid)[CNTATC]ATQRLANFLRHSSNN(αMePhe)GPILPPTEVGSNTY-amide] (H-K([γGlu-C18 diacid])CNTATCATQRLANFLRHSSNN[αMeF]GPILPPTEVGSNTY-NH2; disulfide 2-7; N-terminus assumed) | 9 | 221 pM | – |
